# Values joined by “and” are separate entries in the source; they are usually repeats but may differ in a detail not shown here. Identical values can stand only once. ± gives the expanded uncertainty stated by the source.
# Conditions: Liquid
smiles,measurement,setting,value
CC(C)=O [acetone],vapor or sublimation pressure,364.51 K,297.1 ± 2.1 kPa and 294.3 ± 2.1 kPa and 296.4 ± 2.1 kPa
same,vapor or sublimation pressure,364.52 K,296.8 ± 2.1 kPa
same,vapor or sublimation pressure,365.43 K,302.56 ± 2.1 kPa
CCCC [butane],vapor or sublimation pressure,364.51 K,1284.5 ± 8.9 kPa
C/C=C\C [(Z)-2-butene],vapor or sublimation pressure,365.43 K,1213 ± 8.5 kPa
C/C=C/C [(E)-2-butene],vapor or sublimation pressure,364.5 K,1269.2 ± 8.9 kPa
C=C(C)C [2-methylpropene],vapor or sublimation pressure,364.51 K,1546.2 ± 11 kPa
CC(C)C [2-methylpropane],vapor or sublimation pressure,364.5 K,1685.6 ± 12 kPa
C=CCC [1-butene],vapor or sublimation pressure,364.51 K,1510.5 ± 10 kPa
